Assay results published in patent US20200306254A1, “COMBINATION OF ERK1/2 INHIBITOR COMPOUND WITH GEMCITABINE OR WITH GEMCITABINE AND NAB-PACLITAXEL FOR USE IN TREATMENT OF PANCREATIC CANCER” (Eli Lilly and Company, priority 2016, published 2020).
Read-outs that look alike come from different tables or passages of the source.

Assays:
[1] = system: ERK substrate (RSK) phosphorylation in HCT116 colorectal cancer cell line; experiment: ERK1/2 Cell Mechanistic Assay (pRSK1 Alphascreen Assay); assay type: cell-based; conditions: Homo sapiens, HCT-116, HCT116 cells, 2 h, n=8, read-out: IC50, ERK substrate (RSK) phosphorylation in tumor cells
Method: The purpose of this assay is to measure the ability of a compound to inhibit ERK signaling in cancer cells in vitro. Carry out the pRSK1 Alphascreen assay using the HCT116 colorectal cancer cell line (ATCC, # CCL-247). Routinely culture HCT116 cells in Dulbecco's Modified Eagle's Medium (DMEM) (Hyclone, # SH30022) growth medium containing 5%0/Fetal Bovine Serum (FBS) (Gibco, #16000-044) in T-150 flasks and incubate in a 5% CO2 incubator at 37° C. Harvest cells when they become confluent and freeze in freezing medium at 1×10e^7 cells/mL as “assay ready frozen cells” and store in liquid nitrogen. To run the assay, plate 40,000 HCT116 cells/well in a 96-well tissue culture plate and incubate at 37° C. in a 5% CO2 incubator overnight. Test compounds at 10 concentrations starting at a 20 μM top concentration and utilize a 1:3 dilution scheme (20 μM to 0.001 μM) with a final DMSO concentration of 0.5% (v/v). Add compounds in 20 μL serum free growth medium and incubate at 37° C. for two hours. Remove growth medium and add 50 μL of 1× lysis buffer [Cell Signaling Technology, #9803] containing 1× holt protease and […] inhibitor cocktail [Thermo, #78441] to each well and incubate at room temperature for 10 minutes on a shaker. […] Measure the fluorescence intensity in each well by reading the plates in ENVISION® (PerkinElmer) plate reader. […]

[2] = system: human pancreatic cancer cells MIA PaCa2 xenograft; experiment: Xenograft Tumor Model (MIA PaCa2); assay type: in vivo, female athymic nude mice; conditions: for Delta T/C % or Regression %: oral gavage, 14 days
Method: The purpose of this assay is to measure reduction in tumor volume in response to test compound administration. Expand human pancreatic cancer cells MIA PaCa2 (ATCC, # CRL1420) in culture, harvest and inject 5×10e^6 cells in 200 μL of 1:1 HBSS+matrigel solution subcutaneously on the rear right flank of female athymic nude mice (22-25 g, Harlan Laboratories). Measure tumor growth and body weight twice per week beginning the seventh day after the implantation. When tumor sizes reach 200-400 mm^3, randomize animals and group into groups of eight to ten animals. Prepare test compound in an appropriate vehicle (vehicle: […]/0.25% TWEEN® 80/0.05% Antifoam) and administer by oral gavage daily for 14 days. Tumor response is determined by tumor volume measurement performed twice a week during the course of treatment. Body weight is taken as a general measure of toxicity.
Regression % is calculated when the endpoint volume is below baseline. The formula is 100*(T−T0)/T0. Where T0 is the mean baseline tumor volume for the treated group. Grand mean of all groups from baseline (randomization) at day 20 used to compute % change of T/C.

[3] = system: KRAS mutant (G12V) Capan-2 pancreatic cancer xenograft; assay type: in vivo; conditions: for Delta T/C % or % Regression: Day 34, Compound A 50 mg/kg QD PO, gemcitabine 100 mg/kg once weekly IP; for Difference (Treatment 1 − Treatment 2), tumor growth: Treatment 1 = Vehicle QD x 28 PO, log10 tumor volume, Compound A 50 mpk QD x 28 PO, Gemcitabine 100 mpk Q7D x 4 IP; for inhibition of tumor growth: single agents vs vehicle control group, combination vs each single agent alone
Method: Human pancreatic cancer cell line Capan-2 (ATCC cat # HTB-80) are cultured in DMEM supplemented with 10% fetal bovine serum, sodium pyruvate, nonessential amino acids, L-glutamine, and penicillin-streptomycin (Invitrogen, Carlsbad, Calif.). All cultures are maintained in a humidified incubator at 37° C. under 5% CO2/95% air free off mycoplasma and pathogenic murine viruses. The cells are used for experiments at passages <7 after recovery from frozen stocks.
Female CB-17 SCID nude mice are ordered from Charles River Laboratories International, Inc. All animals are acclimated for one week before the use and are housed and maintained in specific pathogen-free conditions in accordance with the guidelines of the American Association for Laboratory Animal Care and all current regulations and standards of the U.S. Departments of Agriculture and of Health and Human Services and the NIH. The experiment protocol is approved by the Eli Lilly and Company Animal Care and Use Committee.
Logarithmically growing Capan-2 cells (5×10^6/200 μL, single-cell suspensions of over 95% viability in Hank's medium mixed with equal volume of Matrigel (Becton Dickinson & Co., San Jose, Calif.)) are subcutaneously injected into the flank of the mice. When the average tumor volume reaches about 200 to 300 mm^3 following tumor cell implantation, the animals are randomized into different groups (n=5). The animals are treated with vehicle control (1% HEC/0.25% TWEEN® 80/0.05% Antifoam, daily, orally), Compound A (50 mg/kg, QD, PO), gemcitabine (100 mg/kg, once weekly, intraperitoneal), and the combination for 4 weeks. Compound A was formulated in 1% HEC/0.25% TWEEN® 80/0.05% Anti foam and gemcitabine is formulated in phosphate buffered saline (lx). Tumor volume and body weight are measured twice weekly. Tumor volume is estimated by using the formula: v=l×w2×0.536 where l=larger of measured diameter and w=smaller of perpendicular diameter.
The statistical analysis of the tumor volume data begins with a data transformation to a log scale to equalize variance across time and treatment groups. The log volume data are analyzed with a two-way repeated measures analysis of variance by time and treatment using the MIXED procedures in SAS software (Version 9.3). The correlation model for the repeated measures is Spatial Power. Treated groups are compared to the control group at each time point. The MIXED procedure is also used separately for each treatment group to calculate adjusted means and standard errors at each time point. Both analyses account for the autocorrelation within each animal and the loss of data that occurs when animals with large tumors are removed from the study early. The adjusted means and standard errors (s.e.) are plotted for each treatment group versus time. Analysis for tumor volume is based on log10 and spatial power covariance structure. P value is based on the comparison between two specific groups.
First, the usual repeated measures model is fit to log volume versus group and time. Then contrast statements are used to test for an interaction effect at each time point using the 2 specific treatments that are combined. This is equivalent to the Bliss Independence method and assumes that tumor volumes can, in theory, reach zero, i.e., complete regression. The expected additive response (EAR) for the combination is calculated on the tumor volume scale as: response (EAR) EAR volume=V1*V2/V0, where V0, V1, and V2 are the estimated mean tumor volumes for the vehicle control, treatment 1 alone, and treatment 2 alone, respectively. If the interaction test is significant, the combination effect is declared statistically more than additive or less than additive depending on the observed combination mean volume being less than or more than the EAR volume, respectively. Otherwise, the statistical conclusion is additive. In addition, a biologically relevant range of additivity can be defined as X % above and below the EAR volume. Typically, X would be 25 to 40%. […]

Row | SMILES | IC50 [1] [nM] | Delta T/C % or Regression % ([2]; MIA PaCa2 xenograft, 25 mg/kg QD) [%] | Delta T/C % or Regression % ([2]; MIA PaCa2 xenograft, 50 mg/kg QD) [%] | Delta T/C % or Regression % ([2]; MIA PaCa2 xenograft, 100 mg/kg QD) [%] | Delta T/C % or Regression % ([2]; MIA PaCa-2 xenograft, 12.5 mg/kg QD) [%] | anti-tumor activity ([2]; human pancreatic cancer xenograft model (MIA PaCa2)) | Delta T/C % or % Regression [3] [%] | Difference (Treatment 1 − Treatment 2), tumor growth [3] | inhibition of tumor growth [3] | Delta T/C % or % Regression ([3]; listed as gemcitabine) [%]
1 | Cn1nccc1Nc1nccc(-c2cc3c(s2)C(C)(C)N(CCN2CCOCC2)C3=O)n1 [Compound A, 6,6-Dimethyl-2-{2-[(1-methyl-1H-pyrazol-5-yl)amino]pyrimidin-4-yl}-5-[2-(morpholin-4-yl)ethyl]-5,6-dihydro-4H-thieno[2,3-c]pyrrol-4-one] | 429 | 2 | −22 | −66 | 32 | significant anti-tumor activity | 40 | 0.397 | partial inhibition of tumor growth | 
2 | Nc1ccn([C@@H]2O[C@H](CO)[C@@H](O)C2(F)F)c(=O)n1 [Gemcitabine, gemcitabine] |  |  |  |  |  |  | 24 | 0.633 | partial inhibition of tumor growth | 20
